From PubChem BioAssay AID720607 (Broad Institute, 2013)
Results filed as inconclusive are left out.

System: CCRF-CEM viability, CellTiter-Glo ATP luminescence, 8-48 h
Test: CCRF-CEM leukemia cell viability loss, dose response, HRAS target identification, CellTiter-Glo ATP luminescence, 8/24/48 h, dry powder (AID 720607)

| Compound | AC50 (measured here: 8 h treatment) | AC50 (measured here: 24 h treatment) | AC50 (measured here: 48 h treatment) |
| --- | --- | --- | --- |
| Cc1onc(C(=O)N2CCN(C(c3ccc(Cl)cc3)c3ccc(Cl)cc3)CC2)c1[N+](=O)[O-] | 553 nM | 68.9 nM | 78.8 nM |
| COc1ccc(N(C(=O)CCl)C(C(=O)NCCc2ccccc2)c2cccs2)cc1Cl (stereo not given) | 321 nM | 39 nM | 38.7 nM |
| C#CCCCC(=O)NCCOCCOCCOc1ccc(N(C(=O)CCl)C(C(=O)NCCc2ccccc2)c2cccs2)cc1Cl (stereo not given) | 2980 nM | 588 nM | 565 nM |
| COC(=O)c1ccc([C@@H]2c3[nH]c4ccccc4c3C[C@@H](C(=O)OC)N2C(=O)CCl)cc1 | 272 nM | 19.9 nM | 23.4 nM |
| CC(C)(C)OC(=O)NCCOCCOCCOc1ccc(N(C(=O)CCl)C(C(=O)NCCc2ccccc2)c2cccs2)cc1Cl (stereo not given) | 454 nM | 34.4 nM | 41.5 nM |
